# Reference: patent US20030181520A1, “Methods of reversing and preventing cardiovascular pathologies” (priority 2001, published 2003)
# How the values were obtained:
# [1] = tested on: coronary artery opening at the site of angioplasty; assay: Clinical trial: minimal luminal area by intravascular ultrasound (IVUS) six months after angioplasty; type: in vivo, human; conditions: for mean minimal luminal area: IVUS six months after angioplasty
# Method: (§1) The primary endpoint of the trial was the size of the lumenal area (coronary artery opening), as measured by intravascular ultrasound (IVUS), six months after angioplasty. […] Angiographic restenosis was also assessed using a standard definition of restenosis as measured by quantitative coronary angiography (QCA). […] An IVUS analysis of reference vessels (blood vessels of coronary arteries that were not targets of angioplasty procedures) was also carried out. The data indicated lumen volumes increased for patients who received either of the top two doses of Compound A. In contrast, patients on placebo had decreased lumen volumes, consistent with the expected progression of atherosclerosis.
# A study was conducted to determine whether Compound A reduces restenosis as assessed by intravascular ultrasound (IVUS) when administered for 2 weeks before and 4 weeks after percutaneous coronary intervention (PCI) with or without stent placement. A multi-center, double-blind placebo-controlled randomized trail with 5 treatment groups:
# (§2) Treatment of the above was given 2 weeks prior to and 4 weeks after PCI. PCI was performed on greater than or equal to 1 native artery with greater than or equal to 1 de novo lesion of greater than or equal to 50%. All PCI procedures (with or without stent placement) and post-PCI management were performed according to recognized current clinical practice. 0.3 mg of nitroglycerin(Ntg) intracoronary (IC) were administered at every angiogram. Quantitative Coronary Angiography (QCA) measurements were taken prior to-PCI, 10 minutes post-PCI, and final follow-up (approximately 6 months).
# (§3) IVUS examinations were conducted at 30 Mhz using 3.5 French CVIS catheters. All IVUS examinations were preceded by IC Ntg 0.3 mg. Results of these examinations are found in FIGS. 1-6.
# stented arteries = assay: Clinical trial: angiographic restenosis by quantitative coronary angiography (QCA); type: in vivo, human; conditions: for rate of angiographic restenosis in stented arteries: QCA; for restenosis rate reduction: relative to placebo (37.5 percent); for restenosis after PCI: treatment 2 weeks before and 4 weeks after PCI
# Method: as §1, §2
# [2] = tested on: reference vessels (coronary arteries that were not targets of angioplasty); assay: Clinical trial: IVUS analysis of lumen volume of reference vessels (non-PCI site); type: in vivo, human; conditions: for lumen volume change of reference vessels: IVUS, non-PCI site
# Method: as §1, §3
# QTc interval = assay: Clinical trial: QTc interval; type: in vivo, human
# [3] = Antioxidant activity (preclinical comparison)
# VCAM-1 = VCAM-1 gene expression inhibition; type: cell-based; conditions: compound A at low micromolar concentrations, probucol at very high concentrations
# MCP-1 = MCP-1 gene expression inhibition; type: cell-based; conditions: compound A at low micromolar concentrations, probucol at very high concentrations
# [4] = Anti-inflammatory activity (preclinical comparison)
Compound,mean minimal luminal area ([1]; 70 mg once a day for six weeks),mean minimal luminal area ([1]; 140 mg once a day for six weeks),"mean minimal luminal area ([1]; 280 mg once a day for six weeks, p<0.05 vs. placebo)","luminal area at the site of angioplasty ([1]; at two weeks, p<0.05)","rate of angiographic restenosis in stented arteries (stented arteries; combined Compound A arms (70, 140, 280 mg once a day))",restenosis rate reduction (stented arteries; combined Compound A arms),restenosis after PCI (stented arteries),lumen volume change of reference vessels ([2]; 70 mg once a day),lumen volume change of reference vessels ([2]; 140 mg once a day),lumen volume change of reference vessels ([2]; 280 mg once a day),lumen dimensions of the reference segments ([2]; in contrast to probucol),prolongation of the QTc interval (QTc interval),antioxidant properties [3],inhibition of VCAM-1 gene expression (VCAM-1),inhibition of MCP-1 gene expression (MCP-1),activity as an anti-inflammatory agent [4],mean minimal luminal area ([1]; probucol 500 mg twice a day for six weeks),restenosis rate reduction (stented arteries; probucol 500 mg twice a day),rate of angiographic restenosis in stented arteries (stented arteries; probucol 500 mg twice a day),lumen volume change of reference vessels ([2]; probucol 500 mg twice a day)
"CC(C)(Sc1cc(C(C)(C)C)c(O)c(C(C)(C)C)c1)Sc1cc(C(C)(C)C)c(OC(=O)CCC(=O)O)c(C(C)(C)C)c1 [Compound A, Butanedioic acid, mono [4-[[1-[[3,5-bis(1,1-dimethylethyl)-4-hydroxyphenyl]thio]-1-methylethyl]thio]2,6-bis(1,1-dimethylethyl)phenyl]ester]",2.75 mm2,3.17 mm2,3.36 mm2,dose response improvement,26.0%,31%,reduce restenosis,−2.4 mm3,+3.5 mm3,+1.8 mm3,surprising improvement,without causing prolongation,equipotent to probucol,very active inhibitor,very active inhibitor,consistently very effective,,,,
"CC(C)(Sc1cc(C(C)(C)C)c(O)c(C(C)(C)C)c1)Sc1cc(C(C)(C)C)c(O)c(C(C)(C)C)c1 [Probucol, probucol, reference compound]",,,,,,,reduce restenosis,,,,,,,inactive,inactive,,3.69 mm2,32%,25.5%,−0.2 mm3
